{"source": "patent US20260049075A1", "about": "“CYTOTOXIC IMIDAZO[1,2-A]PYRIDINE COMPOUNDS AND THEIR USE IN THERAPY” (MyricX Pharma Limited, priority 2022, published 2026)", "molecules": {"B1": {"name": "ifinatamab-DXd (conjugate, chains of the INN, looked up)", "VH": "QVQLVQSGAEVKKPGSSVKVSCKASGYTFTNYVMHWVRQAPGQGLEWMGYINPYNDDVKYNEKFKGRVTITADESTSTAYMELSSLRSEDTAVYYCARWGYYGSPLYYFDYWGQGTLVTVSS", "VL": "EIVLTQSPATLSLSPGERATLSCRASSRLIYMHWYQQKPGQAPRPLIYATSNLASGIPARFSGSGSGTDFTLTISSLEPEDFAVYYCQQWNSNPPTFGQGTKVEIK", "modifications": "deruxtecan (DXd) payload"}}, "key": {"human NMT1 (HsNMT1)": {"biological_target": "T1, human NMT1 (HsNMT1) (Homo sapiens, UniProt P30419)", "T1 sequence (P30419 1-496)": "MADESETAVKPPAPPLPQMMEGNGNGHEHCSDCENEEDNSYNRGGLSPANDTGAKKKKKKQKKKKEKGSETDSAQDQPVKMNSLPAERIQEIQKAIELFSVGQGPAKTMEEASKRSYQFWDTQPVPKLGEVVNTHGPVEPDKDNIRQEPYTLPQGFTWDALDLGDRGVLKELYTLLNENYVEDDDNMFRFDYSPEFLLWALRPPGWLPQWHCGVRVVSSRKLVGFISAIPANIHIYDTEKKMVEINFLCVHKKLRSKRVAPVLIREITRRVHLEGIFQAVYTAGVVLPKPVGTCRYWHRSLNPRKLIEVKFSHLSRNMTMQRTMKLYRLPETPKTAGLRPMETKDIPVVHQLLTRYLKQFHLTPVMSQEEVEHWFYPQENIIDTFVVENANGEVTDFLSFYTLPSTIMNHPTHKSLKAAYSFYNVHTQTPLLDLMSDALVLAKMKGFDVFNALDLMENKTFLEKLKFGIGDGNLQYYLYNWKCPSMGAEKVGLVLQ", "experiment": "HsNMT1 sensitive fluorescence-based assay (CoA detection with CPM)", "assay_type": "biochemical"}, "DOHH-2 tumor cells": {"tested_on": "DOHH-2 tumor cells", "experiment": "Subcutaneous xenograft DOHH-2 Lymphoma Model", "assay_type": "in vivo, mouse", "conditions": "CB17/SCID mice", "description": "The in vivo efficacy of certain Example compounds was assessed in a subcutaneous xenograft DOHH-2 Lymphoma Model using 10 female 6-8 week old CB17/SCID Mice. Each mouse was inoculated subcutaneously at the right front region with DOHH-2 tumor cells (5×10^6) in 0.1 ml of PBS mixed with matrigel (1:1 PBS:matrigel) for tumor development. The test compound administration started once the mean tumor size reached approximately 100-150 mm^3. Compounds were administered either IP (vehicle 10 mM sodium phosphate+0.2% Tween-80 (pH7.4) or orally (vehicle 15 Na2HPO4 buffer (10 mM) (pH 4.5)+0.2% tween 80). Tumor volumes were measured in two dimensions using a caliper, and the volume expressed in mm^3 using the formula: V=(L×W×W)/2, where V is tumor volume, L is tumor length (the longest tumor dimension) and W is tumor width (the longest tumor dimension perpendicular to L). Mice were dosed with Example 21 orally (12.5 or 25 mg/kg) once a day for 9 consecutive days (FIG. 3). Example 5 was dosed intraperitoneally (7 or 20 mg/kg) in a cycle consisting of administration QD for three days followed by a three day no-dosing period followed by QD dosing for a further three days (FIG. 4). Example 12 was dosed intraperitoneally (0.7 or 2 mg/kg) in a cycle consisting of administration QD for three days followed by a three day no-dosing period followed by QD dosing for a further three days (FIG. 5). In a separate study Example 12 was dosed at […] in a cycle consisting of administration QD for two days followed by either four or six day no-dosing period, and this cycle was repeated three times (FIG. 6).\nThe protocol and any amendment(s) or procedures involving the care and use of animals in this study were reviewed and approved by the Institutional Animal Care and Use Committee (IACUC) of CrownBio prior to execution. During the study, the care and use of animals was conducted in accordance with the regulations of the Association for Assessment and Accreditation of Laboratory Animal Care (AAALAC)."}, "[1]": {"tested_on": "BT474 breast cancer cells", "experiment": "Orthotopic breast cancer xenograft model (BT474), tumour volume", "assay_type": "in vivo, mouse", "conditions": "2.0 mg/kg IV, 2 days dosing then 5 day holiday; stopped at day 13", "procedure": "NOD/SCID mice were implanted with estrogen pellets (17β-estradiol, 60 day release, 0.36 mg) subcutaneously in the right flank one day before the tumour inoculation. On day −8 each mouse was then injected in the right mammary fat pad with 1×10^7 viable BT474 breast cancer cells resuspended in 0.2 mL of Phosphate Buffered Saline mixed with matrigel (1:1). Mice were assigned to treatment groups when tumour volumes averaged 149.78 mm^3 on study day 0. […] The study was terminated on Study Day 35. […] Each group was comprised of 10 mice. Tumour volumes in mice were measured three times per week and tumour volume was calculated using the formula 0.5 (L×W^2). […] Statistical analyses were carried out on tumour readings for Groups 1, 2, 3, 4 and 5 up to Study Day 23 (after this point >50% of the animals within one of the study groups were lost; Group 2) using two-way ANOVA, or a Mixed-Effects model was fitted when values were missing from groups (PRISM GraphPad Software Inc.). Statistical analysis of Group 6 was conducted until day 12 (at this point the study was terminated due to the significant loss of observed body weight). Using a ROUT outlier analysis in GraphPad Prism, one mouse in Group 5 was identified as an outlier across all timepoints (at the 5% confidence level) and has therefore been excluded from analysis. […]"}, "[2]": {"experiment": "Body weight in BT474 xenograft study", "assay_type": "in vivo, mouse", "conditions": "2 mg/kg IV, 2 days dosing then 5 day holiday; terminated early", "description": "During the study, body weights were measured three times weekly for all animals. Animals were given Diet Gel for the entire duration on the study."}, "JIMT-1 tumour cells": {"tested_on": "JIMT-1 tumour cells", "experiment": "JIMT-1 breast cancer xenograft model, tumour volume", "assay_type": "in vivo, mouse", "description": "80 mice were assigned to 8 treatment groups when tumour volumes averaged ˜160.66 mm^3 on Study Day 0. Dosing commenced the following day and all animals were dosed intravenously with ADC Example 3, sacituzumab govitecan or unconjugated sacituzumab. The study was terminated on the Study Day 60."}, "LNCaP tumour cells": {"tested_on": "LNCaP tumour cells", "experiment": "LNCaP prostate cancer xenograft model, tumour volume", "assay_type": "in vivo, mouse", "conditions": "for Day 28 tumour volume (mm^3, mean ± SEM) / Tumour growth inhibition (TGI, %): IV, Q7D (x3); for Day 28 tumour volume (mm^3, mean ± SEM): NOD SCID mice; for Tumour growth inhibition (TGI, %): day 28", "source_text": "A total of 84 male NOD SCID mice aged 5-8 weeks and weighing 25-30 g were used for the study."}, "VcaP tumour cells": {"tested_on": "VcaP tumour cells", "experiment": "VcaP prostate cancer xenograft model, tumour volume", "assay_type": "in vivo, mouse", "conditions": "for ΔTGI (Study Day 17): CB17/SCID mice", "description": "All mice received two doses of test agent, on Study Day 1 and Study Day 8. The study was terminated on Study Day 30."}, "[3]": {"conditions": "intraperitoneal dosing, Example 5 7 or 20 mg/kg, Example 12 0.7 or 2 mg/kg, QD cycles"}}}
{"molecule": "CNCc1cnc2ccc(-c3ccc(F)c(F)c3OCCc3c(C(C)O)nn(C)c3C)cn12", "note": "(stereo not shown) [Example 5, 1-{4-[2-(2,3-difluoro-6-{3-[(methylamino)methyl]imidazo[1,2-a]pyridin-6-yl}phenoxy)ethyl]-1,5-dimethyl-1H-pyrazol-3-yl}ethan-1-ol]", "values": [{"measurement": "IC50", "setting": "human NMT1 (HsNMT1)", "value": 2.2, "unit": "nM"}, {"measurement": "tumour volume compared to vehicle", "setting": "DOHH-2 tumor cells; [3]", "value": "significant reduction in tumour volume or reduced growth in tumour volume"}]}
{"molecule": "CNCc1cnc2ccc(-c3ccc(F)c(F)c3OCCc3c(C(O)C(C)(C)C)nn(C)c3C)cn12", "note": "(single isomer, unassigned) [Example 12, 1-(4-(2-(2,3-difluoro-6-(3-((methylamino)methyl)imidazo[1,2-a]pyridin-6-yl)phenoxy)ethyl)-1,5-dimethyl-1H-pyrazol-3-yl)-2,2-dimethylpropan-1-ol]", "values": [{"measurement": "IC50", "setting": "human NMT1 (HsNMT1)", "value": 2.1, "unit": "nM"}, {"measurement": "tumour volume compared to vehicle", "setting": "DOHH-2 tumor cells; [3]", "value": "significant reduction in tumour volume or reduced growth in tumour volume"}, {"measurement": "tumour size", "setting": "[1]", "value": "reduced tumour size"}, {"measurement": "body weights", "setting": "[2]", "value": "decreased significantly"}]}
{"molecule": "Cc1c(CCOc2c(-c3ccc4ncc(CN)n4c3)ccc(F)c2F)c(C(O)C(C)(C)C)nn1C", "note": "(stereo not shown) [Example 17, 1-(4-(2-(6-(3-(aminomethyl)imidazo[1,2-a]pyridin-6-yl)-2,3-difluorophenoxy)ethyl)-1,5-dimethyl-1H-pyrazol-3-yl)-2,2-dimethylpropan-1-ol]", "values": [{"measurement": "IC50", "setting": "human NMT1 (HsNMT1)", "value": 2, "unit": "nM"}]}
{"molecule": "CNCc1cnc2ccc(-c3ccc(F)c(F)c3OCCc3c(C(C)(C)O)nn(C)c3C)cn12", "note": "[Example 21, 2-(4-(2-(2,3-difluoro-6-(3-((methylamino)methyl)imidazo[1,2-a]pyridin-6-yl)phenoxy)ethyl)-1,5-dimethyl-1H-pyrazol-3-yl)propan-2-ol]", "values": [{"measurement": "tumour volume compared to vehicle", "setting": "DOHH-2 tumor cells; oral dosing 12.5 or 25 mg/kg once a day for 9 days", "value": "significant reduction in tumour volume or reduced growth in tumour volume"}]}
{"molecule": "sacituzumab govitecan [reference compound]", "values": [{"measurement": "tumour volume compared to vehicle alone", "setting": "JIMT-1 tumour cells; 2.5 mg/kg", "value": "significant decrease in tumour volume"}, {"measurement": "tumour volume compared to vehicle alone", "setting": "JIMT-1 tumour cells; 5 mg/kg", "value": "significant decrease in tumour volume"}]}
{"molecule": "CCNCc1cnc2ccc(-c3ccc(F)cc3OCCc3c(C(C)(C)O)nn(C)c3C)cn12", "note": "[Example 22, 2-{4-[2-(2-{3-[(ethylamino)methyl]imidazo[1,2-a]pyridin-6-yl}-5-fluorophenoxy)ethyl]-1,5-dimethyl-1H-pyrazol-3-yl}propan-2-ol]", "values": [{"measurement": "IC50", "setting": "human NMT1 (HsNMT1)", "value": 3, "unit": "nM"}]}
{"molecule": "sacituzumab", "values": [{"measurement": "tumour volume compared to vehicle alone", "setting": "JIMT-1 tumour cells; 2.5 mg/kg", "value": "no significant difference"}, {"measurement": "tumour volume compared to vehicle alone", "setting": "JIMT-1 tumour cells; 5 mg/kg", "value": "significant decrease in tumour volume"}]}
{"molecule": "ifinatamab: antibody binding CD276 (B7-H3); heavy chain SEQ ID NO: 6, light chain SEQ ID NO: 5", "values": [{"measurement": "effect on LNCaP tumour volume compared to vehicle", "setting": "LNCaP tumour cells; 5 mg/kg", "value": "no significant effect"}, {"measurement": "Day 28 tumour volume (mm^3, mean ± SEM)", "setting": "LNCaP tumour cells; 5 mg/kg", "value": "551.4 ± 73.1", "unit": "mm^3"}, {"measurement": "Tumour growth inhibition (TGI, %)", "setting": "LNCaP tumour cells; 5 mg/kg", "value": 30.6, "unit": "%"}, {"measurement": "effect on LNCaP tumour volume compared to vehicle", "setting": "LNCaP tumour cells; 10 mg/kg", "value": "no significant effect"}, {"measurement": "Day 28 tumour volume (mm^3, mean ± SEM)", "setting": "LNCaP tumour cells; 10 mg/kg", "value": "666.56 ± 103.2", "unit": "mm^3"}, {"measurement": "Tumour growth inhibition (TGI, %)", "setting": "LNCaP tumour cells; 10 mg/kg", "value": 13.0, "unit": "%"}, {"measurement": "tumour volume compared to vehicle alone", "setting": "VcaP tumour cells; 2.5 mg/kg", "value": "no significant difference"}, {"measurement": "ΔTGI (Study Day 17)", "setting": "VcaP tumour cells; 2.5 mg/kg IV QW x 2 weeks", "value": 8.47, "unit": "%"}, {"measurement": "tumour volume compared to vehicle alone", "setting": "VcaP tumour cells; 5 mg/kg", "value": "no significant difference"}, {"measurement": "ΔTGI (Study Day 17)", "setting": "VcaP tumour cells; 5 mg/kg IV QW x 2 weeks", "value": 12.44, "unit": "%"}]}
{"molecule": "Cc1c(CCOc2cc(F)ccc2-c2ccc3ncc(CCN)n3c2)c(C(C)O)nn1C", "note": "(stereo not shown) [Example 7, 1-(4-(2-(2-(3-(2-aminoethyl)imidazo[1,2-a]pyridin-6-yl)-5-fluorophenoxy)ethyl)-1,5-dimethyl-1H-pyrazol-3-yl)ethan-1-ol]", "values": [{"measurement": "IC50", "setting": "human NMT1 (HsNMT1)", "value": 9, "unit": "nM"}]}
{"molecule": "CNCc1cnc2ccc(-c3ccc(F)c(F)c3OCCc3c(C(O)C(C)C)nn(C)c3C)cn12", "note": "(stereo not shown) [Example 25, 1-{4-[2-(2,3-difluoro-6-{3-[(methylamino)methyl]imidazo[1,2-a]pyridin-6-yl}phenoxy)ethyl]-1,5-dimethyl-1H-pyrazol-3-yl}-2-methylpropan-1-ol]", "values": [{"measurement": "IC50", "setting": "human NMT1 (HsNMT1)", "value": 2, "unit": "nM"}]}
{"molecule": "Cc1c(CCOc2c(-c3ccc4ncc(CN)n4c3)ccc(F)c2F)c(C(C)(C)O)nn1C", "note": "[Example 20, 2-[4-(2-{6-[3-(aminomethyl)imidazo[1,2-a]pyridin-6-yl]-2,3-difluorophenoxy}ethyl)-1,5-dimethyl-1H-pyrazol-3-yl]propan-2-ol]", "values": [{"measurement": "IC50", "setting": "human NMT1 (HsNMT1)", "value": 2, "unit": "nM"}]}
{"molecule": "CNCc1cnc2ccc(-c3ccc(F)cc3OCCc3c(C(C)O)nn(C)c3C)cn12", "note": "(stereo not shown) [Example 1, 1-{4-[2-(5-fluoro-2-{3-[(methylamino)methyl]imidazo[1,2-a]pyridin-6-yl}phenoxy)ethyl]-1,5-dimethyl-1H-pyrazol-3-yl}ethan-1-ol]", "values": [{"measurement": "IC50", "setting": "human NMT1 (HsNMT1)", "value": 2.2, "unit": "nM"}]}
{"molecule": "B1", "values": [{"measurement": "effect on LNCaP tumour volume compared to vehicle", "setting": "LNCaP tumour cells; 5 mg/kg", "value": "slowed the growth of LNCaP tumours to a lesser extent"}, {"measurement": "Day 28 tumour volume (mm^3, mean ± SEM)", "setting": "LNCaP tumour cells; 5 mg/kg", "value": "364.6 ± 51.7", "unit": "mm^3"}, {"measurement": "Tumour growth inhibition (TGI, %)", "setting": "LNCaP tumour cells; 5 mg/kg", "value": 58.8, "unit": "%"}, {"measurement": "effect on LNCaP tumour volume compared to vehicle", "setting": "LNCaP tumour cells; 10 mg/kg", "value": "significantly reduced the mean volume"}, {"measurement": "Day 28 tumour volume (mm^3, mean ± SEM)", "setting": "LNCaP tumour cells; 10 mg/kg", "value": "259.5 ± 50.3", "unit": "mm^3"}, {"measurement": "Tumour growth inhibition (TGI, %)", "setting": "LNCaP tumour cells; 10 mg/kg", "value": 75.0, "unit": "%"}, {"measurement": "tumour volume compared to vehicle alone", "setting": "VcaP tumour cells; 2.5 mg/kg", "value": "no significant difference"}, {"measurement": "ΔTGI (Study Day 17)", "setting": "VcaP tumour cells; 2.5 mg/kg IV QW x 2 weeks", "value": 5.24, "unit": "%"}, {"measurement": "tumour volume compared to vehicle alone", "setting": "VcaP tumour cells; 5 mg/kg", "value": "significantly higher tumour volume"}, {"measurement": "ΔTGI (Study Day 17)", "setting": "VcaP tumour cells; 5 mg/kg IV QW x 2 weeks", "value": 2.86, "unit": "%"}]}
